Our source for the inhibition values is ChEMBL document CHEMBL6103552, “Identification of peptide-based hepatitis B virus capsid inhibitors based on the viral core protein” (Bioorg Med Chem Lett, 2025).

Each structure is given as a SMILES string. The source made the active and inactive calls. No rule for the calls is given here. Residues, ends and D or L forms follow the SMILES beside them.

The target in the experiment is Core antigen (Hepatitis B virus) (UniProt Q03732). In words: Inhibition of Hepatitis B virus capsid formation at 100 uM treated during cell-free wild type HBV Cp synthesis using wheat germ lysates and HBV Cp RNA by Native capsid assay based western blot analysis. The class given is subcellular. Background: A western blot detects proteins with antibodies after separation by electrophoresis.
Core antigen (Hepatitis B virus), sequence (Q03732 as listed by the source): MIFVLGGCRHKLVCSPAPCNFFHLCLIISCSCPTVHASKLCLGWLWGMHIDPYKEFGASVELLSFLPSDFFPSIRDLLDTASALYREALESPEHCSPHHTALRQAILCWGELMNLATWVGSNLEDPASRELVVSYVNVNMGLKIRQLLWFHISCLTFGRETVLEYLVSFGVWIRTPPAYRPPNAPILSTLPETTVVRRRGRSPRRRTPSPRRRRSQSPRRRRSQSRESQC

Consider `CC(=O)NCC(=O)N[C@@H](CCCNC(=N)N)C(=O)N[C@@H](CCC(=O)O)C(=O)N[C@H](C(=O)N[C@H](C(=O)N[C@@H](CC(C)C)C(=O)N[C@@H](CCC(=O)O)C(=O)N[C@@H](Cc1ccc(O)cc1)C(=O)N[C@@H](CC(C)C)C(=O)N[C@H](C(=O)N[C@@H](CO)C(=O)N[C@@H](Cc1ccccc1)C(=O)NCC(=O)N[C@H](C(=O)N[C@@H](Cc1c[nH]c2ccccc12)C(N)=O)C(C)C)C(C)C)C(C)C)[C@@H](C)O` (Ac-GRETVLEYLVSFGVW-NH2), for which the inhibition entry was “inactive”.

Take `CC[C@H](C)[C@H](NC(=O)[C@H](C)NC(=O)[C@H](CCC(N)=O)NC(=O)[C@@H]1CCCN1C(=O)[C@H](CC(C)C)NC(=O)[C@H](C)NC(=O)[C@@H](NC(=O)[C@H](Cc1c[nH]cn1)NC(=O)[C@H](Cc1c[nH]cn1)NC(C)=O)[C@@H](C)O)C(=O)N[C@@H](CC(C)C)C(=O)N[C@@H](CS)C(=O)N[C@@H](Cc1c[nH]c2ccccc12)C(=O)NCC(=O)N[C@@H](CCC(=O)O)C(=O)N[C@@H](CC(C)C)C(N)=O` (Ac-HHTALPQAILCWGEL-NH2): the inhibition result was “inactive”.

On to `CC[C@H](C)[C@H](NC(C)=O)C(=O)N[C@@H](CCCNC(=N)N)C(=O)N[C@H](C(=O)N1CCC[C@H]1C(=O)N1CCC[C@H]1C(=O)N[C@@H](C)C(=O)N[C@@H](Cc1ccc(O)cc1)C(=O)N[C@@H](CCCNC(=N)N)C(=O)N1CCC[C@H]1C(=O)N1CCC[C@H]1C(=O)N[C@@H](CC(N)=O)C(=O)N[C@@H](C)C(=O)N1CCC[C@H]1C(=O)N[C@H](C(=O)N[C@@H](CC(C)C)C(N)=O)[C@@H](C)CC)[C@@H](C)O` (Ac-IRTPPAYRPPNAPIL-NH2), for which the inhibition entry is “inactive”.

As to `CC(=O)N[C@@H](CC(C)C)C(=O)N[C@@H](CC(=O)O)C(=O)N[C@H](C(=O)N[C@@H](C)C(=O)N[C@@H](CO)C(=O)N[C@@H](C)C(=O)N[C@@H](CC(C)C)C(=O)N[C@@H](Cc1ccc(O)cc1)C(=O)N[C@@H](CCCNC(=N)N)C(=O)N[C@@H](CCC(=O)O)C(=O)N[C@@H](C)C(=O)N[C@@H](CC(C)C)C(=O)N[C@@H](CCC(=O)O)C(=O)N[C@@H](CO)C(=O)N1CCC[C@H]1C(N)=O)[C@@H](C)O` (Ac-LDTASALYREALESP-NH2), the inhibition entry was “inactive”.

Turning to `CC[C@H](C)[C@H](NC(=O)[C@H](Cc1c[nH]c2ccccc12)NC(=O)[C@@H](NC(=O)CNC(=O)[C@H](Cc1ccccc1)NC(=O)[C@H](CO)NC(=O)[C@@H](NC(=O)[C@H](CC(C)C)NC(=O)[C@H](Cc1ccc(O)cc1)NC(=O)[C@H](CCC(=O)O)NC(=O)[C@H](CC(C)C)NC(C)=O)C(C)C)C(C)C)C(=O)N[C@@H](CCCNC(=N)N)C(=O)N[C@H](C(=O)N1CCC[C@H]1C(=O)N1CCC[C@H]1C(N)=O)[C@@H](C)O` (Ac-LEYLVSFGVWIRTPP-NH2), the inhibition entry is “inactive”.

In the case of `CC[C@H](C)[C@H](NC(=O)[C@H](Cc1c[nH]cn1)NC(=O)[C@H](Cc1ccccc1)NC(=O)[C@H](Cc1c[nH]c2ccccc12)NC(=O)[C@H](CC(C)C)NC(C)=O)C(=O)N[C@@H](CO)C(=O)N[C@@H](CS)C(=O)N[C@@H](CC(C)C)C(=O)N[C@H](C(=O)N[C@@H](Cc1ccccc1)C(=O)NCC(=O)N[C@@H](CCCNC(=N)N)C(=O)N[C@@H](CCC(=O)O)C(=O)N[C@H](C(=O)N[C@H](C(N)=O)C(C)C)[C@@H](C)O)[C@@H](C)O` (Ac-LWFHISCLTFGRETV-NH2), the inhibition result was “inactive”.

Take `CC(=O)N1CCC[C@H]1C(=O)N[C@@H](CCCNC(=N)N)C(=O)N[C@@H](CCCNC(=N)N)C(=O)N[C@@H](CCCNC(=N)N)C(=O)N[C@@H](CCCNC(=N)N)C(=O)N[C@@H](CO)C(=O)N[C@@H](CCC(N)=O)C(=O)N[C@@H](CO)C(=O)N[C@@H](CCCNC(=N)N)C(=O)N[C@@H](CCC(=O)O)C(=O)N[C@@H](CO)C(=O)N[C@@H](CCC(N)=O)C(=O)N[C@@H](CS)C(N)=O` (Ac-PRRRRSQSRESQC-NH2): the inhibition entry was “inactive”.

Turning to `CC(=O)N1CCC[C@H]1C(=O)N[C@@H](CCCNC(=N)N)C(=O)N[C@@H](CCCNC(=N)N)C(=O)N[C@@H](CCCNC(=N)N)C(=O)N[C@H](C(=O)N1CCC[C@H]1C(=O)N[C@@H](CO)C(=O)N1CCC[C@H]1C(=O)N[C@@H](CCCNC(=N)N)C(=O)N[C@@H](CCCNC(=N)N)C(=O)N[C@@H](CCCNC(=N)N)C(=O)N[C@@H](CCCNC(=N)N)C(=O)N[C@@H](CO)C(=O)N[C@@H](CCC(N)=O)C(=O)N[C@@H](CO)C(N)=O)[C@@H](C)O` (Ac-PRRRTPSPRRRRSQS-NH2), the inhibition result is “inactive”.

For `CC(=O)N1CCC[C@H]1C(=O)N[C@@H](CO)C(=O)N1CCC[C@H]1C(=O)N[C@@H](CCCNC(=N)N)C(=O)N[C@@H](CCCNC(=N)N)C(=O)N[C@@H](CCCNC(=N)N)C(=O)N[C@@H](CCCNC(=N)N)C(=O)N[C@@H](CO)C(=O)N[C@@H](CCC(N)=O)C(=O)N[C@@H](CO)C(=O)N1CCC[C@H]1C(=O)N[C@@H](CCCNC(=N)N)C(=O)N[C@@H](CCCNC(=N)N)C(=O)N[C@@H](CCCNC(=N)N)C(=O)N[C@@H](CCCNC(=N)N)C(N)=O` (Ac-PSPRRRRSQSPRRRR-NH2), the inhibition entry was “inactive”.

Regarding `CC(=O)N[C@@H](CCC(N)=O)C(=O)N[C@@H](CO)C(=O)N1CCC[C@H]1C(=O)N[C@@H](CCCNC(=N)N)C(=O)N[C@@H](CCCNC(=N)N)C(=O)N[C@@H](CCCNC(=N)N)C(=O)N[C@@H](CCCNC(=N)N)C(=O)N[C@@H](CO)C(=O)N[C@@H](CCC(N)=O)C(=O)N[C@@H](CO)C(=O)N[C@@H](CCCNC(=N)N)C(=O)N[C@@H](CCC(=O)O)C(=O)N[C@@H](CO)C(=O)N[C@@H](CCC(N)=O)C(=O)N[C@@H](CS)C(N)=O` (Ac-QSPRRRRSQSRESQC-NH2), the inhibition entry is “inactive”.

`CC(=O)N[C@@H](CCCNC(=N)N)C(=O)N[C@@H](CCCNC(=N)N)C(=O)NCC(=O)N[C@@H](CCCNC(=N)N)C(=O)N[C@@H](CO)C(=O)N1CCC[C@H]1C(=O)N[C@@H](CCCNC(=N)N)C(=O)N[C@@H](CCCNC(=N)N)C(=O)N[C@@H](CCCNC(=N)N)C(=O)N[C@H](C(=O)N1CCC[C@H]1C(=O)N[C@@H](CO)C(=O)N1CCC[C@H]1C(=O)N[C@@H](CCCNC(=N)N)C(=O)N[C@@H](CCCNC(=N)N)C(N)=O)[C@@H](C)O` (Ac-RRGRSPRRRTPSPRR-NH2): the inhibition entry was “inactive”.

Regarding `CC(=O)N[C@@H](CCCNC(=N)N)C(=O)N[C@@H](CCCNC(=N)N)C(=O)N[C@@H](CO)C(=O)N[C@@H](CCC(N)=O)C(=O)N[C@@H](CO)C(=O)N1CCC[C@H]1C(=O)N[C@@H](CCCNC(=N)N)C(=O)N[C@@H](CCCNC(=N)N)C(=O)N[C@@H](CCCNC(=N)N)C(=O)N[C@@H](CCCNC(=N)N)C(=O)N[C@@H](CO)C(=O)N[C@@H](CCC(N)=O)C(=O)N[C@@H](CO)C(=O)N[C@@H](CCCNC(=N)N)C(=O)N[C@@H](CCC(=O)O)C(N)=O` (Ac-RRSQSPRRRRSQSRE-NH2), the inhibition entry is “inactive”.

As to `CC(=O)N[C@@H](CO)C(=O)N[C@@H](CS)C(=O)N[C@@H](CC(C)C)C(=O)N[C@H](C(=O)N[C@@H](Cc1ccccc1)C(=O)NCC(=O)N[C@@H](CCCNC(=N)N)C(=O)N[C@@H](CCC(=O)O)C(=O)N[C@H](C(=O)N[C@H](C(=O)N[C@@H](CC(C)C)C(=O)N[C@@H](CCC(=O)O)C(=O)N[C@@H](Cc1ccc(O)cc1)C(=O)N[C@@H](CC(C)C)C(=O)N[C@H](C(N)=O)C(C)C)C(C)C)[C@@H](C)O)[C@@H](C)O` (Ac-SCLTFGRETVLEYLV-NH2), the inhibition result is “inactive”.

On to `CC(=O)N[C@H](C(=O)N[C@H](C(=O)N[C@H](C(=O)N[C@H](C(=O)N[C@@H](CCCNC(=N)N)C(=O)N[C@@H](CCCNC(=N)N)C(=O)N[C@@H](CCCNC(=N)N)C(=O)NCC(=O)N[C@@H](CCCNC(=N)N)C(=O)N[C@@H](CO)C(=O)N1CCC[C@H]1C(=O)N[C@@H](CCCNC(=N)N)C(=O)N[C@@H](CCCNC(=N)N)C(=O)N[C@@H](CCCNC(=N)N)C(=O)N[C@H](C(N)=O)[C@@H](C)O)C(C)C)C(C)C)[C@@H](C)O)[C@@H](C)O` (Ac-TTVVRRRGRSPRRRT-NH2), for which the inhibition result is “inactive”.

As to `CSCC[C@H](NC(=O)[C@H](CC(N)=O)NC(=O)[C@@H](NC(=O)[C@H](CC(N)=O)NC(=O)[C@@H](NC(=O)[C@H](Cc1ccc(O)cc1)NC(=O)[C@H](CO)NC(=O)[C@@H](NC(C)=O)C(C)C)C(C)C)C(C)C)C(=O)NCC(=O)N[C@@H](CC(C)C)C(=O)N[C@@H](CCCCN)C(=O)N[C@@H](Cc1ccccc1)C(=O)N[C@@H](CCCNC(=N)N)C(=O)N[C@@H](CCC(N)=O)C(=O)N[C@@H](CC(C)C)C(N)=O` (Ac-VSYVNVNMGLKFRQL-NH2), the inhibition entry was “inactive”.

In the case of `CC(C)C[C@H](NC(=O)[C@H](C)NC(=O)[C@@H](NC(=O)[C@H](Cc1c[nH]cn1)NC(=O)[C@H](Cc1c[nH]cn1)NC(=O)[C@@H]1CCCN1C(=O)[C@H](CO)NC(=O)[C@H](CS)NC(=O)[C@H](Cc1c[nH]cn1)NC(=O)[C@H](CCC(=O)O)NC(=O)[C@@H]1CCCN1C(=O)[C@H](CO)NC(=O)[C@H](CCC(=O)O)NC(=O)[C@H](CC(C)C)NC(=O)[C@H](C)N)[C@@H](C)O)C(N)=O` (H-ALESPEHCSPHHTAL-NH2), the inhibition result is “inactive”.

Regarding `CC(C)C[C@H](NC(=O)[C@H](C)N)C(=O)N[C@@H](Cc1ccc(O)cc1)C(=O)N[C@@H](CCCNC(=N)N)C(=O)N[C@@H](CCC(=O)O)C(=O)N[C@@H](C)C(=O)N[C@@H](CC(C)C)C(=O)N[C@@H](CCC(=O)O)C(=O)N[C@@H](CO)C(=O)N1CCC[C@H]1C(=O)N[C@@H](CCC(=O)O)C(=O)N[C@@H](Cc1c[nH]cn1)C(=O)N[C@@H](CS)C(=O)N[C@@H](CO)C(=O)N1CCC[C@H]1C(N)=O` (H-ALYREALESPEHCSP-NH2), the inhibition entry was “inactive”.

As to `CC[C@H](C)[C@H](NC(=O)[C@@H]1CCCN1C(=O)[C@H](C)NC(=O)[C@H](CC(N)=O)NC(=O)[C@@H]1CCCN1C(=O)[C@@H]1CCCN1C(=O)[C@H](CCCNC(=N)N)NC(=O)[C@H](Cc1ccc(O)cc1)NC(=O)[C@H](C)N)C(=O)N[C@@H](CC(C)C)C(=O)N[C@@H](CO)C(=O)N[C@H](C(=O)N[C@@H](CC(C)C)C(=O)N1CCC[C@H]1C(=O)N[C@@H](CCC(=O)O)C(N)=O)[C@@H](C)O` (H-AYRPPNAPILSTLPE-NH2), the inhibition result is “inactive”.

For `CC[C@H](C)[C@H](NC(=O)[C@H](C)NC(=O)[C@H](CCC(N)=O)NC(=O)[C@@H]1CCCN1C(=O)[C@H](CC(C)C)NC(=O)[C@H](C)NC(=O)[C@@H](NC(=O)[C@H](Cc1c[nH]cn1)NC(=O)[C@H](Cc1c[nH]cn1)NC(=O)[C@@H]1CCCN1C(=O)[C@H](CO)NC(=O)[C@H](CS)NC(=O)[C@H](Cc1c[nH]cn1)NC(=O)[C@@H](N)CCC(=O)O)[C@@H](C)O)C(=O)N[C@@H](CC(C)C)C(N)=O` (H-EHCSPHHTALPQAIL-NH2), the inhibition entry was “inactive”.
